Results on two molecules are retold here after patent publication US20070191490A1, “Withacnistin compounds for treatment of cancer” (priority 2006, published 2007).

Test [1] relates to phospho-JNK. Kind of test: phospho-JNK levels in A549 cells (Western blotting). It is filed as cell-based, human. The conditions noted are these: 10 μM, 4 hours. The protocol: Western blotting. Treated cell samples were lysed in 30 mM HEPES, pH 7.5, 10 mM NaCl, 5 mM MgCl2, 25 mM NaF, 1 mM EGTA, 1% Triton X-100, 10% glycerol, 2 mM sodium orthovanadate, 10 μg/ml aprotinin, 10μ/ml soybean trypsin inhibitor, 25 μg/ml leupeptin, 2 mM PMSF, and 6.4 mg/ml p-nitrophenylphosphate. Phospho-STAT3, phospho-AKT, phospho-Src, and phospho-p42/p44 MAPK antibodies were obtained from Cell Signaling Technologies (Cambridge, Mass., USA). Phospho-JNK and whole STAT3 antibodies were purchased from Santa Cruz Biotechnology (Santa Cruz, Calif., USA); phospho-JAK2 antibody came from Upstate Biotechnology (Lake Placid, N.Y., USA). Membranes were blocked in either 5% milk in phosphate-buffered saline (PBS), pH 7.4, containing 0.1% Tween-20 (PBS-T) or 1% BSA in tris-buffered saline (TBS), pH 7.5, containing 0.1% Tween-20 (TBS-T). Phospho-specific antibodies (excepting P-MAPK and P-JNK) were incubated in 1% BSA in TBS-T while all other antibodies were diluted in 5% milk in PBS-T for either 2 h at room temperature or overnight at 4° C. HRP-conjugated secondary antibodies (Jackson ImmunoResearch, West Grove, Pa., USA) were diluted in 5% milk in either PBS-T or TBS-T at 1:1000 dilution for 1 h at room temperature. […]
It was next determined whether withacnistin and the Cuc analogs are selective for the JAK2/STAT3 pathway over other signal transduction pathways. […]

Test [2] has as its system STAT1. Kind of test: Growth factor/cytokine stimulation of STAT1 tyrosine phosphorylation. It is filed as cell-based, human. The conditions noted are these: U266 cells, pretreatment. The protocol:
Furthermore, it is not know whether Wit suppresses constitutive or stimulated P-STAT3 levels selectively over other STAT family members such as STAT1 and STAT5. To this end, a variety of human cancer cell lines were treated with Wit and stimulated with growth factors or cytokines known to activate STAT family members as described under Methods. […] Pretreatment of U266 cells with W or WM blocked this IL-6 activation of STAT3 in a dose-dependent manner. In contrast, IL-6 activation of STAT1 in these cells was not affected by Wit pretreatment (FIG. 9B).

Test [3] concerns H-Ras/3T3 cells. Kind of test: TUNEL apoptosis assay, H-Ras/3T3. It is filed as cell-based, murine. As to conditions: 10 μM withacnistin mixture, 24 hours. The protocol:
(§1) In vitro cellular proliferation and TUNEL assays. Subconfluent A549, MDA-MB-435, MDA-MB-453, MDAMB-468, v-Src transformed NIH 3T3 (v-Src/3T3), H-Ras transformed NIH 3T3 (H-Ras/3T3), and vector NIH 3T3 cells were grown in the presence of 10 μM cucurbitacin A, cucurbitacin I, withacnistin mixture, or DMSO vehicle control. After 24 hours, cells were harvested by trypsinization and counted via trypan blue exclusion assay to determine cellular viability. In all, 75,000-150,000 cells (depending on cell line) were then spun onto glass slides using a Cytospin 3 centrifuge (Thermo Shandon Inc., Pittsburgh, Pa., USA). After fixing cells to the slides with 4% paraformaldehyde in PBS, pH 7.5, for 1 h at room temperature, cells were labeled for apoptotic DNA strand breaks by TUNEL reaction using an in situ cell death detection kit (Roche Applied Science, Indianapolis, Ind., USA) according to the manufacturer's instructions, then mounted in Vectashield mounting medium (Vector Laboratories, Burlingame, Calif., USA) containing 4′,6-diamidino-2-phenylindole (DAPI) to counterstain DNA. […] TUNELpositive nuclei were counted and compared to DAPI-stained nuclei to determine the percent induction of apoptosis by the different cucurbitacin compounds. Statistical significance between control and treated tumors were evaluated by using Student's t-test. […]

Test [4] relates to MDA-MB-453 cells. Kind of test: TUNEL apoptosis assay, MDA-MB-453. It is filed as cell-based, human. As to conditions: 10 μM withacnistin mixture, 24 hours. The protocol: as §1

Take `CC(=O)OC(C)(C)/C=C/C(=O)[C@](C)(O)[C@H]1[C@H](O)C[C@@]2(C)[C@@H]3CC=C4[C@@H](C[C@H](O)C(=O)C4(C)C)[C@]3(CO)C(=O)C[C@]12C` [Cuc A, cucurbitacin A]: in test [1], the “phosphotyrosine levels of JNK1” value is given as “little inhibitory activity”.

As for `CC(=O)OC[C@]12CC[C@H]3[C@@H](C[C@H]4O[C@]45[C@@H](O)C=CC(=O)[C@]35C)[C@@H]1CC[C@@H]2[C@H](C)[C@H]1CC(C)=C(C)C(=O)O1` [withacnistin], the “IL-6 activation of STAT1” value in test [2] is given as “not affected”. Moreover, in test [3], the “apoptosis (TUNEL-positive cells)” value is reported as 7.3±4.7% and the “fold increase of apoptosis over control” value amounted to 12.5 fold. For the same molecule, the “increase of percentage of apoptotic cells compared to vehicle control” value in test [4] stood at 4.7 fold.
